A short description of data set [1]: mutagenicity (AMES) tests. Here is the method: (§1) Additional studies of D-pinitol's safety and efficacy included mutagenicity (AMES) tests, which were negative. […] In a phase I safety and pharmacokinetic study of D-pinitol in AD subjects, the time to peak plasma levels was about 90 minutes after administration, and the elimination half-life (t1/2) was 10 hours.

The nature of the next data set: solubility in water. The class given is physicochemical. From the text:
In some embodiments, the D-pinitol can be a component of a dietary supplement or a medical food (e.g., in combination with an edible oil), or a food for special dietary use. Medical foods are, by definition, formulated to be consumed or administered enterally under the supervision of a physician or other medical professional. The manufacture of medical foods typically is done in compliance with FDA Good Manufacturing Practices (GMP) requirements. The term “food for special dietary use” is defined by 21 C.F.R. §105.3, as applied to food for humans, as meaning • particular (as distinguished from general) uses of food, as follows: • (i) Uses for supplying particular dietary needs which exist by reason of a physical, physiological, pathological or other condition, including but not limited to the conditions of diseases, convalescence, pregnancy, lactation, allergic hypersensitivity to food, underweight, and overweight; • (ii) Uses for supplying particular dietary needs which exist by reason of age, including but not limited to the ages of infancy and childhood; • (iii) Uses for supplementing or fortifying the ordinary or usual diet with any vitamin, mineral, or other dietary property. Any such particular use of a food is a special dietary use, regardless of whether such food also purports to be or is represented for general use. […]

Data set [2] in a line: phase I safety and pharmacokinetic study in AD subjects. It is filed as in vivo, human. Here is the method: as §1
A further data set has as its system rats. As to the kind of experiment: acute toxicity studies in rats. The class given is in vivo, rat. Here is the method: as §1
For data set [3] the following is noted: subjects with insulin resistance, dosed daily with 20 mg/kg for 28 days; cited from earlier work.

A word on the LD50: it is the dose at which mortality reaches 50%.

For `CO[C@H]1[C@H](O)[C@@H](O)[C@@H](O)[C@H](O)[C@@H]1O` [D-pinitol, 3-O-methyl-D-chiro-inositol], in data set [1], the “mutagenicity (AMES) tests” value is “negative”. Besides, the solubility in water result in “solubility in water” is recorded as “soluble in water”. Besides, the “elimination half-life (t1/2)” value in data set [2] stood at 10 h. The “time to peak plasma levels” value in data set [2] (after administration) is “about 90 minutes”. The LD50 in the data set on rats is more than 2000 mg/kg. Moreover, the “increase in plasma D-pinitol concentration as compared to baseline” value in data set [3] is on record as 48 fold.

Values taken from patent publication US20170102398A1, “PREDICTING AND REDUCING COGNITIVE DECLINE BASED ON GSK-3 LEVELS” (HUMANETICS CORPORATION, priority 2014, published 2017).
